Patent publication US12280026B2, “Use of repirinast in the prophylaxis or treatment of renal fibrosis or kidney disease” (ALGERNON PHARMACEUTICALS INC., priority 2018, dated 2025)
Entries after “also recorded” stand apart in the source; their conditions may differ.

What was measured:
Assay type in all cases: in vivo
[1] = Example 1: UUO mice, mean body weight change following surgery; conditions: Example 1, mostly post-surgical day 14, male C57BL/6 mice, PO QD days 1-14, doses of Table 1
Experimental: (§1) Male 9-12 week old C57BL/6 mice of 23-25 grams body weight were used. All mice were acclimated for a minimum of 5 days prior to the start of the study and housed individually in microisolators throughout the study in a 12:12 light-dark cycle on a standard maintenance mouse chow diet (Harlan Teklad 2018) with food and water given ad libitum. Prior to surgery, all mice were weighed for baseline body weight.
(§2) The UUO surgical intervention was performed according to previously described methods known in the art (Le Meur Y et al., Macrophage accumulation at a site of renal inflammation is dependent on the M-CSF/c-fms pathway, J Leukocyte Biol., 72:530-537; 2002).
(§3) All mice were first anesthetized by intraperitoneal injection with a rodent cocktail (ketamine 10 mg/mL and Xyaline 1 mg/mL) in normal saline (10 μL/g body weight). Pedal reflex and movement of the vibrissae were used to determine the state of unconsciousness. A state of unconsciousness was confirmed after a period of about 5 minutes in all animals. All mice were then shaved on the left side of the abdomen. The shaved area was first swabbed with iodine and then swabbed with alcohol. A vertical incision was made through the skin with a #22 scalpel and the skin was then retracted. A further incision of about 2.5 cm was then made through the peritoneum avoiding any major blood vessels. The peritoneum was then retracted and the left kidney was exposed.
(§4) The left kidney was then brought to the surface by hooking the ureter directly beneath the kidney with sterile forceps and gently manipulating the kidney upward. The ureter was ligated at two points directly below the kidney with 5-0 surgical silk with excess suture cut away and discarded post-ligation. The kidney was then gently placed back to its correct anatomical position and the abdomen was lavaged with 1 mL sterile saline to replenish fluid loss. The peritoneum and then skin were sutured with 5-0 Mersilene, and the incision site was gently wiped with iodine. All mice were then placed individually in clean cages that were set on top of a thermal blanket until recovery at about 30-60 minutes later. In some examples, sham surgery was performed as a control by following all steps of the UUO surgical intervention procedure except ligation.
(§5) Following surgery, the mice were divided into 14 individual study groups of 8 mice each and, following post-surgical recovery, administered a once-daily oral treatment for 14 days. The mice in 12 of the 14 study groups (hereafter known as “treatment groups”) had all received the UUO surgical ligation and were treated individually with a distinct pharmacologic compound as set out in Table 1. The mice in 2 of the 14 study groups were treated individually with a pharmaceutically acceptable vehicle with no active ingredient. The pharmaceutically acceptable vehicle in all groups was 0.5% carboxymethyl cellulose (CMC). All mice were sacrificed with CO2 on post-surgical day 15.
(§6) The dose selected for the animal studies was determined by taking the maximum known human daily dose, dividing by the average weight of an adult (˜60-70 kg) to get a human mg/kg dose. […]
Body weight: The body weights were measured on days 1, 2, 5, 8, 10 and 14 using a laboratory balance.
Body weights were measured on post-surgical days 1, 2, 5, 8, 10 and 14 as previously described. The mean body weight change of each study group was calculated using the body weight average of all mice in each study group.

[2] = tested on: C57BL/6 mice with UUO surgical ligation; test: Example 1: UUO mice, kidney weight evaluation (ligated vs non-ligated kidney); conditions: doses of Table 1
Experimental: as §1
The UUO surgical intervention was performed according to previously described methods known in the art (Le Meur Y et al., Macrophage accumulation at a site of renal inflammation is dependent on the M-CSF/c-fms pathway, J Leukocyte Biol., 72:530-537; 2002). […]
as §6
Kidney weight: The UUO was then examined in situ to ensure that the surgical ligation ties remained patent. […] Weights of both kidneys were measured using a laboratory balance.
Kidney Weight Evaluation: Kidney weight indicating, which indicates functional and pathological changes in the kidney, was evaluated by measuring the weight of both the ligated (UUO) and non-ligated kidneys as previously described. […]

[3] = tested on: C57BL/6 mice with UUO surgical ligation; test: Example 1: UUO mice, renal function evaluation (plasma BUN, creatinine); conditions: Example 1
Experimental: as §1, §2, §3, §4, §5
The dose selected for the animal studies was determined by taking the maximum known human daily dose, dividing by the average weight of an adult (˜60-70 kg) to get a human mg/kg dose. Then that number was multiplied by 12 to convert to a mouse dose based on conventional dosing tables. See Nair and Jacob, J Basic Clin Pharm March 2016-May 2016, 7(2):27-31.
Serum collection: A blood sample was then collected from all mice and plasma analyzed for urea nitrogen and creatinine. Plasma was stored at −80° C. for possible future analysis.
Renal Function Evaluation: Renal function and disease progression was evaluated by BUN (blood urea nitrogen) as previously described. The BUN of each study group consisted of the BUN average of all mice in each study group.

[4] = tested on: C57BL/6 mice with UUO surgical ligation; test: Example 1: UUO mice, renal fibrosis evaluation (Sirius Red histology score); conditions: Bemithyl 200, Emoxypine 160, Suplatast Tosylate 60, Udenafil 40, Telmisartan 5 mg/kg PO QD, 4-methylbenzenesulfonate
Experimental: as §1, §2, §3, §4, §5, §6
Histopathology: Formalin-fixed kidney cross-section samples were subjected histopathological scoring with Sirius Red staining, and imaged at a magnification of ×20, using standard techniques. All three sections were stained and evaluated. […] The presence of interstitial damage and severity score was assessed according to the following criteria: 0=normal, 1=light, 2=moderate, 3=severe. […]

Row | Structure (SMILES) | Mean body weight change, comparison with control groups, in words [1] | Ligated kidney weight in comparison to control groups, in words [2] | Reduction in BUN compared to vehicle, significance in words ([3]; Bonferroni post-test, Suplatast Tosylate 60, Iguratimod 15, Lobenzarit 48, Actarit 60, Udenafil 40 mg/kg PO QD) | BUN in comparison to control groups, in words ([3]; UUO, male C57BL/6 mice, PO QD days 1-14, doses of Table 1) | Kidney fibrosis / Histology Score, significance and comparison in words [4]
1 | CCn1c(=O)c2c(nc(/C=C/c3ccc(OC)c(OC)c3)n2C)n(CC)c1=O [Istradefylline, 8-[(E)-2-(3,4-dimethoxyphenyl)vinyl]-1,3-diethyl-7-methyl-3,7-dihydro-1H-purine-2,6-dione] | greater decrease in body weight | increased in comparison to the remaining 13 study groups |  |  | 
2 | CCOCC(O)COc1ccc(NC(=O)CC[S+](C)C)cc1.Cc1ccc(S(=O)(=O)[O-])cc1 (stereo not drawn) [Suplatast Tosylate, (3-{[4-(3-ethoxy-2-hydroxypropoxy)phenyl]amino}-3-oxopropyl)(dimethyl)sulfonium 4-methylbenzenesulfonate] | comparable to that of the surgery vehicle control group |  | significant reductions in BUN | decreased in comparison to the sham surgery control group | the same as the positive control treatment group; also recorded: significant reductions in kidney fibrosis; also recorded: significant reduction in fibrosis compared to vehicle
